Experimental data as given in patent US20020183279A1, “Pharmaceutical composition containing viscoelastic substance and medication” (Koichiro TANAKA, priority 2001, published 2002).

System: Bacillus substilis (ATCC6633)
Experiment: Inhibition circle (penicillin cup) measurement of antimicrobial activity changed by viscoelastic substance
Format: cell-based, Bacillus subtilis
Experimental: The activity of an antimicrobial agent changes depending upon a type of viscoelastic substance. Such a change was measured by using Bacillus substilis (ATCC6633 referred to as “B subtilis”) and the following viscoelastic substances: First, B. subtilis (0.1 mL of 1.4×10^8 CFU/ML) was spread on a 4% heart infusion medium. Subsequently, a penicillin cup was placed on the medium, and a test solution was poured in the cup. As test solutions, the following groups were used. 0.1 mL of an antimicrobial agent was added to a penicillin cup. Five concentrations from […] were prepared for each antimicrobial agent; 0.1 mL of a viscoelastic substance was added to a penicillin cup; After 0.1 mL of a viscoelastic substance was added to a penicillin cup and allowed to stand still and then 0.1 mL of 5 or 2.5 μg/mL antimicrobial agent was gently added to the viscoelastic substance layer; and 0.1 mL of a viscoelastic substance and 0.1 mL of 5 or 2.5 μg/mL antimicrobial agent were mixed and added to a penicillin cup. Each group was cultured in an incubator at 35° C. for 24 hours. The size of the inhibition circle of B. subtilis was measured. Based on the measurement results of the single antimicrobial agent group, a curve showing the size of inhibition circle versus the antimicrobial agent concentration (referred to as a standard curve) was obtained with respect to individual antimicrobial agents.

CCn1cc(C(=O)O)c(=O)c2cc(F)c(N3CCNCC3)cc21 [NFLX, norfloxacin]
activity of the antimicrobial agent compared to the standard curve (layered group: NFLX layered on HL, OP or VC): lower than the standard
antimicrobial activity, ranking among viscoelastic substances (layered group: NFLX layered on VC): lowest
bacterial proliferation suppression activity compared to the standard curve (mixture group: NFLX mixed with HL, OP or VC, FIG. 5): lower than values of the standard curve but not so significant
